US20020115728A1, “Compositions and methods for treating cardiovascular disorders” (priority 2000, published 2002)

What was measured:
[1] = tested on: New Zealand White rabbits with arterial balloon injury; test: Serum and plasma lipid profile and antioxidants; assay type: in vivo
Procedure: (§1) Twelve rabbits were initially fed standard rabbit chow ad libitum for two weeks, before commencement of the nine weeks intervention study. Six rabbits were fed 100 g per day of standard rabbit chow without (control) or with 0.02% PDA474. At the end of week three, the abdominal aorta and right iliac artery were injured by inserting a 3F Fogarty catheter into the right femoral artery and advancing it by about 25 cm to a position just above the diaphragm. The balloon was then inflated with 0.2 mL of saline, and the catheter pulled back three times. Following injury rabbits were placed back onto their respective diet for another six weeks. During the nine weeks, blood was taken from the marginal ear vein of non-fasted rabbits each week for measuring plasma PDA474 and its metabolites. At the end of week nine, the aorta, iliofemoral arteries and a portion of various tissues (liver, kidney, heart, muscle, spleen and abdominal fat) were harvested.

[2] = PDA474 and metabolite levels in plasma, aorta and major tissues; assay type: in vivo, New Zealand White rabbits
Procedure: as §1

[3] = tested on: intimal thickening in rabbit aorta after arterial balloon injury; test: Histological evaluation of aortic lesion formation after arterial balloon injury; assay type: in vivo, New Zealand White rabbits; settings: rabbits, 0.02% PDA474, six weeks after ABI
Procedure: as §1
The lower abdominal aorta and iliofemeral arteries were pre-perfusion-fixed with 4% buffered formalin at a constant physiological pressure (˜100 mmHg) before removal and placement in 4% buffered formalin for further fixation for 12 h at room temperature. Two parts of the abdominal aorta were taken for lesion assessment. One part (referred to as A1) was located just above 3rd lumber artery close to the lumber branches, and the other part (referred to as A3) represented the central part between 3rd and 4th lumber arteries, where there are few branches. A1 and A3 specimens were embedded in paraffin and two sections (200 μm apart) were taken from each specimen and stained with Verhoeff hematoxylin.
The intima, media and intima/media ratio (IMR) were calculated by tracing the intimal and medial areas and determining their respective total pixel numbers. High IMR indicate large lesions. In addition, the perimeter of the external elastic lamina and the lumen were quantified using Scion Image Software to assess the extent of vessel remodeling.

[4] = tested on: New Zealand White rabbits with arterial balloon injury; test: Liver function (serum AST, ALT, GGT); assay type: in vivo; settings: for Serum ALT / Serum AST / Serum GGT: 0.02% PDA474
Procedure: as §1

[5] = tested on: cGMP production by aortic rings; test: cGMP in homogenates of aortic rings (radioimmunoassay); assay type: in vivo, New Zealand White rabbits; settings: aortic rings of PDA474-treated rabbits, 1 μM ACh
Procedure: cGMP in the homogenates of aortic ring was determined by a specific radioimmunoassay. […] SNP (1 μM) was used as a positive and buffer vehicle as a negative control. The cGMP content was then determined as described in the commercial assay kit (Cayman Chemical), and results expressed per tissue weight or protein.

[6] = tested on: abdominal aortic rings of balloon-injured rabbits; test: Aortic ring study (response to NE, ACh, SNP); assay type: in vivo, New Zealand White rabbits
Excerpt: Following the intervention, the abdominal aorta was removed carefully, cleared of adhering fat and connective tissue, and then cut into 2 mm-wide transverse rings just under second lumbar artery (about 9 cm distal to the common iliac artery and about 5 cm below the celiac artery). This portion of the aorta contains few branches. […] Before the start of the experiments, aortic rings were allowed to equilibrate for one hour under a resting tension of 2.5 g, followed by three washes and re-equilibration of the rings between addition of drugs inducing vaso-response. At the end of each experiment, the aortic ring was weight. The vascular function was assessed in three parts:
2) The response to the endothelium-dependent vasodilator, acetylcholine (ACh). Rings were pre-constricted with PE corresponding to a dose that gave half-maximum contraction (EC50) as calculated from the dose-response curve to NE. ACh (10^−9-10^−5 M) was added after reaching a constant contriction.
3) The response to the endothelium-independent vasodilator, sodium nitroprusside (SNP) (10^−9-10^−5 M) was determined to assess vascular smooth muscle cell function.

[7] = tested on: tocopherol-mediated peroxidation (TMP); test: Anti-TMP index; assay type: biochemical
α-tocopheroxyl radical = test: Tocopheroxyl radical attenuating ability (TRAA); assay type: biochemical; settings: kobs with (+) or without (−) test compound
[8] = 0.02% PDA474, Week 0 (baseline)

CC(C)(C)c1cc(SSc2cc(C(C)(C)C)c(O)c(C(C)(C)C)c2)cc(C(C)(C)C)c1O [PDA474]
Plasma Ascorbate [1, 8]: 34.56 ± 4.36 µmol/L
Plasma Ch18:2 [1, 8]: 0.19 ± 0.02 mmol/L
Plasma Ch20:2 [1, 8]: 0.01 ± 0.00 mmol/L
Plasma Free Chol [1, 8]: 0.49 ± 0.05 mmol/L
Plasma Total Chol [1, 8]: 0.69 ± 0.07 mmol/L
Plasma Urate [1, 8]: 5.56 ± 0.43 µmol/L
Plasma a-TOH [1, 8]: 4.40 ± 0.24 µmol/L
Serum HDL Chol [1, 8]: 0.58 ± 0.07 mmol/L
Serum Triglycerides [1, 8]: 0.95 ± 0.11 mmol/L
Plasma Ascorbate ([1]; 0.02% PDA474, Week 3 (ABI)): 44.01 ± 5.29 µmol/L
Plasma Ch18:2 ([1]; 0.02% PDA474, Week 3 (ABI)): 0.19 ± 0.02 mmol/L
Plasma Ch20:2 ([1]; 0.02% PDA474, Week 3 (ABI)): 0.08 ± 0.00 mmol/L
Plasma Free Chol ([1]; 0.02% PDA474, Week 3 (ABI)): 0.42 ± 0.03 mmol/L
Plasma Total Chol ([1]; 0.02% PDA474, Week 3 (ABI)): 0.62 ± 0.03 mmol/L
Plasma Urate ([1]; 0.02% PDA474, Week 3 (ABI)): 5.86 ± 0.65 µmol/L
Plasma a-TOH ([1]; 0.02% PDA474, Week 3 (ABI)): 5.02 ± 0.50 µmol/L
Serum Cholesterol ([1]; 0.02% PDA474, Week 3 (ABI)): 0.77 ± 0.14 mmol/L
Serum HDL Chol ([1]; 0.02% PDA474, Week 3 (ABI)): 0.50 ± 0.09 mmol/L
Serum Triglycerides ([1]; 0.02% PDA474, Week 3 (ABI)): 0.98 ± 0.15 mmol/L
Plasma Ch18:2 ([1]; 0.02% PDA474, Week 6): 0.25 ± 0.10 mmol/L
Plasma Ch20:2 ([1]; 0.02% PDA474, Week 6): 0.02 ± 0.01 mmol/L
Plasma Free Chol ([1]; 0.02% PDA474, Week 6): 0.43 ± 0.11 mmol/L
Plasma Total Chol ([1]; 0.02% PDA474, Week 6): 0.70 ± 0.21 mmol/L
Plasma a-TOH ([1]; 0.02% PDA474, Week 6): 4.76 ± 0.64 µmol/L
Serum Cholesterol ([1]; 0.02% PDA474, Week 6): 1.15 ± 0.51 mmol/L
Serum HDL Chol ([1]; 0.02% PDA474, Week 6): 0.51 ± 0.15 mmol/L
Serum Triglycerides ([1]; 0.02% PDA474, Week 6): 0.93 ± 0.08 mmol/L
Plasma Ascorbate ([1]; 0.02% PDA474, Week 9 (cull)): 46.51 ± 5.49 µmol/L
Plasma Ch18:2 ([1]; 0.02% PDA474, Week 9 (cull)): 0.16 ± 0.02 mmol/L
Plasma Ch20:2 ([1]; 0.02% PDA474, Week 9 (cull)): 0.04 ± 0.00 mmol/L
Plasma Free Chol ([1]; 0.02% PDA474, Week 9 (cull)): 0.30 ± 0.03 mmol/L
Plasma Total Chol ([1]; 0.02% PDA474, Week 9 (cull)): 0.46 ± 0.04 mmol/L
Plasma Urate ([1]; 0.02% PDA474, Week 9 (cull)): 5.24 ± 1.25 µmol/L
Plasma a-TOH ([1]; 0.02% PDA474, Week 9 (cull)): 3.60 ± 0.31 µmol/L
Serum Cholesterol ([1]; 0.02% PDA474, Week 9 (cull)): 0.67 ± 0.06 mmol/L
Serum HDL Chol ([1]; 0.02% PDA474, Week 9 (cull)): 0.42 ± 0.04 mmol/L
Serum Triglycerides ([1]; 0.02% PDA474, Week 9 (cull)): 0.97 ± 0.13 mmol/L
hypocholesterolemic effect ([1]; rabbits, 0.02% PDA474, 9 weeks): no hypocholesterolemic effect
Serum Cholesterol ([1]; rabbits, chow with 0.02% PDA474, Week 0 (baseline)): 1.13 ± 0.15 mmol/L
Fat PDA474 level ([2]; 0.02% PDA474, 9 weeks, abdominal fat): 1.99 ± 0.40 nmol/mg P
Aorta PDA474 level ([2]; 0.02% PDA474, 9 weeks, aorta): 0.59 ± 0.12 nmol/mg P
Heart PDA474 level ([2]; 0.02% PDA474, 9 weeks, heart): 0.65 ± 0.43 nmol/mg P
Kidney PDA474 level ([2]; 0.02% PDA474, 9 weeks, kidney): 0.26 ± 0.06 nmol/mg P
Liver PDA474 level ([2]; 0.02% PDA474, 9 weeks, liver): 7.30 ± 2.82 nmol/mg P
Muscle PDA474 level ([2]; 0.02% PDA474, 9 weeks, muscle): 0.17 ± 0.06 nmol/mg P
Spleen PDA474 level ([2]; 0.02% PDA474, 9 weeks, spleen): 0.30 ± 0.13 nmol/mg P
concentration at 9 weeks ([2]; New Zealand White, rabbit, oral, 0.02 % in chow, rabbits, 0.02% PDA474 in chow, 9 weeks, plasma, read-out: Plasma PDA474 level): 0.37 ± 0.04 µM
time until plasma concentrations of PDA474 reached steady state ([2]; rabbits, chow with 0.02% PDA474): 1˜2 weeks
amount of the administered PDA474 reaching the circulation ([2]; rabbits, chow with 0.02% PDA474, estimated): < 1%
intima-to-media ratio (IMR), Section A1 of the abdominal aorta, vs control [3]: significantly lower
media areas of abdominal aorta vs control [3]: significantly increased
vascular remodeling (lumen area, EEL perimeter) [3]: did not affect
Serum ALT ([4]; Week 0 (baseline)): 51.17 ± 3.08 U/L
Serum AST ([4]; Week 0 (baseline)): 28.17 ± 2.65 U/L
Serum GGT ([4]; Week 0 (baseline)): 11.50 ± 1.06 U/L
Serum ALT ([4]; Week 3 (ABI)): 76.00 ± 8.13 U/L
Serum AST ([4]; Week 3 (ABI)): 63.33 ± 23.47 U/L
Serum GGT ([4]; Week 3 (ABI)): 12.33 ± 2.29 U/L
Serum ALT ([4]; Week 6): 72.83 ± 5.19 U/L
Serum AST ([4]; Week 6): 33.83 ± 8.79 U/L
Serum GGT ([4]; Week 6): 13.67 ± 0.76 U/L
Serum ALT ([4]; Week 9 (cull)): 100.67 ± 10.43 U/L
Serum AST ([4]; Week 9 (cull)): 69.67 ± 14.34 U/L
Serum GGT ([4]; Week 9 (cull)): 12.33 ± 0.99 U/L
effect on liver function ([4]; rabbits, 0.02% PDA474, 9 weeks): did not affect liver function
tissue cGMP concentrations in response to ACh vs control [5]: significantly increased
muscle tone (g/mg tissue) vs control aortic rings ([6]; NE-induced constriction, PDA474-treated rabbits): nearly twice as high
SNP-induced relaxation vs control ([6]; rings from PDA474-treated rabbits): comparable
ACh-induced relaxation of aortic rings ([6]; rings from PDA474-treated rabbits, pre-constricted with NE at EC50, maximal response at ˜10^−5M ACh): 61 % relaxation
NE-induced constriction of abdominal aortic rings vs control ([6]; rings from balloon-injured rabbits fed 0.02% PDA474): significantly increased

Cc1cc(C(C)(C)C)c(O)c(C(C)(C)C)c1 [BHT]
Anti-TMP index [7]: 8-10
TRAA (decay of tocopheroxyl radical; kobs(+)/kobs(−)) (α-tocopheroxyl radical): Immediate decay

diphenoquinone [H 330/68]
Anti-TMP index [7]: 100
TRAA (decay of tocopheroxyl radical; kobs(+)/kobs(−)) (α-tocopheroxyl radical): kobs(+)/kobs(−)˜1
